# In patent US5968838A, “Antiarrhythmic peptide from venom of spider Grammostola spatulata” (priority 1998, dated 1999):
# Like-named read-outs stand apart in the source and are kept apart here. Ends that are not written are not given here.
# Columns and labels:
# Type in all cases: cell-based, Rat
# L-type Ca^2+ channels = assay: Depolarization (high K+) induced Ca2+ increase in GH3 cells, three consecutive depolarizations
# Protocol: After loading with Fura-2, the cover slip containing the GH3 cells was mounted in a custom made holder and placed in a quartz cuvette at an angle of 20 degrees to the excitation beam. The cells on the cover slip were exposed to various test solutions and the changes in calcium ion concentration were measured according to the following method. Fluorescence emission was collected from a group of about 10^5 cells located in the excitation path. Excitation beams at 340 nm (Ex340nm) and 380 nm (Ex380 nm) were used and the fluorescence intensities at 510 nm (Em5 10 nm) were monitored. […] Fluorescence emission data was collected for times up to 600 to 1200 seconds depending on the solution added to the cells. […]
# GH3 cells = assay: Cell Ca2+ of GH3 cells in isotonic saline (Fura-2); conditions: 10 μM peptide
# Protocol: (§1) Rat pituitary cell line GH3 was provided by Dr. S. Simasko, Department of VCAPP, Washington State University, Pullman, Wash., 99164 and the American Type Culture Collection, Rockville, Md. The cells were cultured in standard medium containing 82.5% Ham's F-10 nutrients (Gibco, Gaithersburg, Md.), 15 % heat inhibited horse serum (Gibco) and 2.5% fetal bovine serum (Gibco) at 37C in 10% CO2. Cells were fed twice per week and subcultured once per week. For Fura-2 fluorescence measurements, cells were plated on poly-L-lysine coated glass cover slips at 95% confluency, cultured under normal conditions and used between 3 to 6 days after plating.
# Ca^2+ was measured on an SLM AB-2 fluorescence spectrometer (SLM Instruments, Rochester, N.Y.). […]
# After loading with Fura-2, the cover slip containing the GH3 cells was mounted in a custom made holder and placed in a quartz cuvette at an angle of 20 degrees to the excitation beam. The cells on the cover slip were exposed to various test solutions and the changes in calcium ion concentration were measured according to the following method. Fluorescence emission was collected from a group of about 10^5 cells located in the excitation path. Excitation beams at 340 nm (Ex340nm) and 380 nm (Ex380 nm) were used and the fluorescence intensities at 510 nm (Em5 10 nm) were monitored. […]
# [1] = tested on: stretch activated channel; assay: Fura-2 fluorescence ratio measurement of stretch activated channel activity: hypotonic cell swelling induced calcium increase (HICI) in GH3 cells
# Protocol: as §1
# Ca^2+ was measured on an SLM AB-2 fluorescence spectrometer (SLM Instruments, Rochester, N.Y.). Cells plated on poly-L-lysine coated glass cover slips were loaded with Fura-2 in a loading solution containing 2 micromolar Fura-2/AM (disclosed in Grynkiewicz, G. et al., (1985) Journal of Biological Chemistry 260: 3440-3450) according to the following procedure. Cells were washed twice in phosphate buffered saline (PBS) solution. Cells were then incubated in the loading solution for 30 minutes at 25C. The cells were rinsed twice with PBS and incubated in the culture medium for 30 minutes at 25C. Experiments were performed within 1 hour after loading. […]
# After loading, the plated cells were exposed to various hypotonic and isotonic solutions and test solutions containing spider venom. Changes in the calcium ion concentration were measured according to the following method.
# After loading with Fura-2, the cover slip containing the GH3 cells was mounted in a custom made holder and placed in a quartz cuvette at an angle of 20 degrees to the excitation beam. The cells on the cover slip were exposed to various test solutions and the changes in calcium ion concentration were measured according to the following method. Fluorescence emission was collected from a group of about 10^5 cells located in the excitation path. Excitation beams at 340 nm (Ex340nm) and 380 nm (Ex380 nm) were used and the fluorescence intensities at 510 nm (Em5 10 nm) were monitored. […] Fluorescence emission data was collected for times up to 600 to 1200 seconds depending on the solution added to the cells.
# An increase in the Ca^2+ concentration caused an increase in the fluorescence at Em510 nm/Ex340nm and at the same time, a decrease at Em510/Ex380nm. The ratio of the two (R) was used to calculate the Ca^2+ concentration using the following formula: [formula] where kd is the equilibrium constant; Rmax is the ratio and Fb is the fluorescence intensity at Ex380nm when Fura-2 is saturated with Ca^2+, Rmin is the ratio and Ff is the fluorescence intensity at Ex380nm when Fura-2 is not bound by Ca^2+. […]
molecule,measurement,setting,value
COC(=O)C1=C(C)NC(C)=C(C(=O)OC)C1c1ccccc1[N+](=O)[O-] [nifedipine],"block of depolarization induced Ca2+ increase (comparators, stated by contrast)",L-type Ca^2+ channels,block
YCQKWMWTCDEERKCCEGLVCRLWCKKKIEW (cysteine pairing not given here) [α Mechanotoxin],effect on cell Ca2+ in isotonic saline,GH3 cells,decreases cell Ca^2+ to levels seen in the absence of extracellular Ca^2+
same,association rate,[1]; block of HICI in GH3 cells,approximately 10^3 m^-1 s^-1
same,dissociation rate,[1]; block of HICI in GH3 cells,~0.01 s⁻¹
same,Kd,"[1]; block of HICI in GH3 cells, read-out: equilibrium constant",~10 µM
same,block of hypotonic cell swelling induced calcium increase (HICI),"[1]; purified peptide, GH3 cells",reversibly blocks
[Gd+3] [Gd^3+],"block of depolarization induced Ca2+ increase (comparators, stated by contrast)","L-type Ca^2+ channels; GH3 cells, concentration not given",block
